These compounds were tested on symmetric dimethylation of arginine (SDMA) of PRMT5 substrates in MCF-7 cells (assay: PRMT5 Cell Target Engagement (TE) Assay). Conditions: Homo sapiens, MCF7, 72 h; MCF-7 cells treated for 3 days; nuclear SDMA by high content imaging; top concentration 10000 nM.
Format: cell-based
How it was run: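 MCF-7 cells treated 3 days at 37 °C with 10-point 1:3 titration from 10000 nM top. Fixed cells stained with anti-SDMA antibody plus Alexa488 secondary and Hoechst; nuclear fluorescence quantified by high-content imaging versus DMSO wells. EC50 from 4-parameter fit of percent fluorescence vs log concentration.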

Compound | EC50 [nM]
Nc1nc2cc(O[C@H]3CC[C@@]4(O)[C@@H]3O[C@@H](n3ccc5c(N)ncnc53)[C@@H]4O)ccc2cc1F [Example 71, (2R,3R,3aS,6S,6aR)-6-((2-amino-3-fluoroquinolin-7-yl)oxy)-2-(4-amino-7H-pyrrolo[2,3-d]pyrimidin-7-yl)hexahydro-3aH-cyclopenta[b]furan-3,3a-diol] | 9
Nc1ncnc2c1ccn2[C@@H]1O[C@@H]2[C@@H](Oc3ccc4cc5c(nc4c3)NCC5)CC[C@]2(O)[C@H]1O [Example 75, (2R,3R,3aS,6S,6aR)-2-(4-amino-7H-pyrrolo[2,3-d]pyrimidin-7-yl)-6-((2,3-dihydro-1H-pyrrolo[2,3-b]quinolin-7-yl)oxy)hexahydro-3aH-cyclopenta[b]furan-3,3a-diol] | 5
Nc1nc2cc(C[C@@H]3CC[C@@]4(O)[C@@H]3O[C@@H](n3ccc5c(N)ncnc53)[C@@H]4O)ccc2cc1C(F)(F)F [Example 76, (2R,3R,3aS,6S,6aR)-6-((2-amino-3-(trifluoromethyl)quinolin-7-yl)methyl)-2-(4-amino-7H-pyrrolo[2,3-d]pyrimidin-7-yl)hexahydro-3aH-cyclopenta[b]furan-3,3a-diol] | 8.6
Nc1nc2cc(O[C@H]3CC[C@@]4(O)[C@@H]3O[C@@H](n3ccc5c(CO)ncnc53)[C@@H]4O)ccc2cc1Br [Example 77, (2R,3R,3aS,6S,6aR)-6-[(2-amino-3-bromoquinolin-7-yl)oxy]-2-[4-(hydroxymethyl)-7H-pyrrolo[2,3-d]pyrimidin-7-yl]hexahydro-3aH-cyclopenta[b]furan-3,3a-diol] | 186
CC(C)(O)c1ncnc2c1ccn2[C@@H]1O[C@@H]2[C@@H](Oc3ccc4cc(Br)c(N)nc4c3)CC[C@]2(O)[C@H]1O [Example 78, (2R,3R,3aS,6S,6aR)-6-1(2-amino-3-bromoquinolin-7-yl)oxyl-2-[4-(2-hydroxypropan-2-yl)-7H-pyrrolo[2,3-d]pyrimidin-7-yl]hexahydro-3aH-cyclcopenta[b]furan-3,3a-diol] | 5990
Cc1nc(C)c2ccn([C@@H]3O[C@@H]4[C@@H](Oc5ccc6cc(Br)c(N)nc6c5)CC[C@]4(O)[C@H]3O)c2n1 [Example 80, (2R,3R,3aS,6S,6aR)-6-((2-amino-3-bromoquinolin-7-yl)oxy)-2-(2,4-dimethyl-7H-pyrrolo[2,3-d]pyrimidin-7-yl)hexahydro-3aH-cyclopenta[b]furan-3,3a-diol 2,2,2-trifluoroacetate] | 97
CC(C)c1ncnc2c1ccn2[C@@H]1O[C@@H]2[C@H](Cc3ccc4cc(Br)c(N)nc4c3)CC[C@]2(O)[C@H]1O [Example 83, (2R,3R,3aS,6S,6aR)-6-((2-amino-3-bromoquinolin-7-yl)methyl)-2-(4-isopropyl-7H-pyrrolo[2,3-d]pyrimidin-7-yl)hexahydro-3aH-cyclopenta[b]furan-3,3a-diol] | 41.1
Cc1ncnc2c1c(F)cn2[C@@H]1O[C@@H]2[C@H](Cc3ccc4cc(Br)c(N)nc4c3)CC[C@]2(O)[C@H]1O [Example 84, (2R,3R,3aS,6S,6aR)-6-((2-amino-3-bromoquinolin-7-yl)methyl)-2-(5-fluoro-4-methyl-7H-pyrrolo[2,3-d]pyrimidin-7-yl)hexahydro-3aH-cyclopenta[b]furan-3,3a-diol] | 7.5
Nc1nc2cc(O[C@H]3CC[C@@]4(O)[C@@H]3O[C@@H](n3ccc5cncnc53)[C@@H]4O)ccc2cc1Br [Example 85, (2R,3R,3aS,6S,6aR)-6-((2-amino-3-bromoquinolin-7-yl)oxy)-2-(7H-pyrrolo[2,3-d]pyrimidin-7-yl)hexahydro-3aH-cyclopenta[b]furan-3,3a-diol] | 32.4
Cc1ncnc2c1ccn2[C@@H]1O[C@@H]2[C@@H](Oc3ccc4cc(F)c(N)nc4c3)CC[C@]2(O)[C@H]1O [Example 86, (2R,3R,3aS,6S,6aR)-6-((2-amino-3-fluoroquinolin-7-yl)oxy)-2-(4-methyl-7H-pyrrolo[2,3-d]pyrimidin-7-yl)hexahydro-3aH-cyclopenta[b]furan-3,3a-diol] | 37.5
Nc1nc2cc(C[C@@H]3CC[C@@]4(O)[C@@H]3O[C@@H](n3ccc5c(C6CC6)ncnc53)[C@@H]4O)ccc2cc1Br [Example 87, (2R,3R,3aS,6S,6aR)-6-((2-amino-3-bromoquinolin-7-yl)methyl)-2-(4-cyclopropyl-7H-pyrrolo[2,3-d]pyrimidin-7-yl)hexahydro-3aH-cyclopenta[b]furan-3,3a-diol] | 22.9
Cc1ncnc2c1ccn2[C@@H]1O[C@@H]2[C@H](Cc3ccc4cc(C(F)(F)F)c(N)nc4c3)CC[C@]2(O)[C@H]1O [Example 88, (2R,3R,3aS,6S,6aR)-6-((2-amino-3-(trifluoromethyl)quinolin-7-yl)methyl)-2-(4-methyl-7H-pyrrolo[2,3-d]pyrimidin-7-yl)hexahydro-3aH-cyclopenta[b]furan-3,3a-diol] | 25.3
Cc1nc(C)c2ccn([C@@H]3O[C@@H]4[C@H](Cc5ccc6cc(F)c(N)nc6c5)CC[C@]4(O)[C@H]3O)c2n1 [Example 90, (2R,3R,3aS,6S,6aR)-6-((2-amino-3-fluoroquinolin-7-yl)methyl)-2-(2,4-dimethyl-7H-pyrrolo[2,3-d]pyrimidin-7-yl)hexahydro-3aH-cyclopenta[b]furan-3,3a-diol] | 42.2
Cc1nc(C)c2ccn([C@@H]3O[C@@H]4[C@H](Cc5ccc6cc(Cl)c(N)nc6c5)CC[C@]4(O)[C@H]3O)c2n1 [Example 91, (2R,3R,3aS,6S,6aR)-6-((2-amino-3-chloroquinolin-7-yl)methyl)-2-(2,4-dimethyl-7H-pyrrolo[2,3-d]pyrimidin-7-yl)hexahydro-3aH-cyclopenta[b]furan-3,3a-diol] | 6.3
CNc1ncnc2c1ccn2[C@@H]1O[C@@H]2[C@H](Cc3ccc4cc(Br)c(N)nc4c3)CC[C@]2(O)[C@H]1O [Example 92] | 9.9
CNc1ncnc2c1ccn2[C@@H]1O[C@@H]2[C@@H](Oc3ccc4cc(Br)c(N)nc4c3)CC[C@]2(O)[C@H]1O [Example 94, (2R,3R,3aS,6S,6aR)-6-((2-amino-3-bromoquinolin-7-yl)oxy)-2-(4-(methylamino)-7H-pyrrolo[2,3-d]pyrimidin-7-yl)hexahydro-3aH-cyclopenta[b]furan-3,3a-diol] | 5.3
CNc1ncnc2c1ccn2[C@@H]1O[C@@H]2[C@H](Cc3ccc4cc(F)c(N)nc4c3)CC[C@]2(O)[C@H]1O [Example 95, (2R,3R,3aS,6S,6aR)-6-((2-amino-3-fluoroquinolin-7-yl)methyl)-2-(4-(methylamino)-7H-pyrrolo[2,3-d]pyrimidin-7-yl)hexahydro-3aH-cyclopenta[b]furan-3,3a-diol] | 47

These reach a lower EC50. Values come first.

EC50 [nM] | Compound
4.4 | Cc1ncnc2c1ccn2[C@@H]1O[C@@H]2[C@@H](Oc3ccc4cc5c(nc4c3)NCC5)CC[C@]2(O)[C@H]1O [Example 89, (2R,3R,3aS,6S,6aR)-6-((2,3-dihydro-1H-pyrrolo[2,3-b]quinolin-7-yl)oxy)-2-(4-methyl-7H-pyrrolo[2,3-d]pyrimidin-7-yl)hexahydro-3aH-cyclopenta[b]furan-3,3a-diol]
3.9 | Cc1nc(C)c2ccn([C@@H]3O[C@@H]4[C@H](Cc5ccc6cc(Br)c(N)nc6c5)CC[C@]4(O)[C@H]3O)c2n1 [Example 81, (2R,3R,3aS,6S,6aR)-6-((2-ammo-3-bromoquinolin-7-yl)methyl)-2-(2,4-dimethyl-7H-pyrrolo[2,3-d]pyrimidin-7-yl)hexahydro-3aH-cyclcopenta[b]furan-3,3a-diol]
3.5 | CNc1ncnc2c1ccn2[C@@H]1C[C@H](COc2ccc3cc(Br)c(N)nc3c2)[C@@](C)(O)[C@H]1O [Example 93, (1R,2S,3R,5R)-5-(((2-amino-3-bromoquinolin-7-yl)oxy)methyl)-1-methyl-3-(4-(methylamino)-7H-pyrrolo[2,3-d]pyrimidin-7-yl)cyclopentane-1,2-diol]
2 | Nc1nc2cc(O[C@H]3CC[C@@]4(O)[C@@H]3O[C@@H](n3cc(F)c5c(N)ncnc53)[C@@H]4O)ccc2cc1F [Example 73, (2R,3R,3aS,6S,6aR)-6-((2-amino-3-fluoroquinolin-7-yl)oxy)-2-(4-amino-5-fluoro-7H-pyrrolo[2,3-d]pyrimidin-7-yl)hexahydro-3aH-cyclopenta[b]furan-3,3a-diol]
1.2 | Nc1nc2cc(C[C@@H]3CC[C@@]4(O)[C@@H]3O[C@@H](n3ccc5c(N)ncnc53)[C@@H]4O)ccc2cc1Cl [Example 67, (2R,3R,3aS,6S,6aR)-6-((2-amino-3-chloroquinolin-7-yl)methyl)-2-(4-amino-7H-pyrrolo[2,3-d]pyrimidin-7-yl)hexahydro-3aH-cyclopenta[b]furan-3,3a-diol]
1.2 | Nc1nc2cc(O[C@H]3CC[C@@]4(O)[C@@H]3O[C@@H](n3ccc5c(N)ncnc53)[C@@H]4O)ccc2cc1Cl [Example 72, (2R,3R,3aS,6S,6aR)-6-((2-amino-3-chioroquinolin-7-yl)oxy)-2-(4-amino-7H-pyrrolo[2,3-d]pyrimidin-7-yl)hexahydro-3aH-cyclopenta[b]furan-3,3a-diol]
1.1 | Nc1nc2cc(C[C@@H]3CC[C@@]4(O)[C@@H]3O[C@@H](n3cc(F)c5c(N)ncnc53)[C@@H]4O)ccc2cc1Cl [Example 68, (2R,3R,3aS,6S,6aR)-6-((2-amino-3-chloroquinolin-7-yl)methyl)-2-(4-amino-5-fluoro-7H-pyrrolo[2,3-d]pyrimidin-7-yl)hexahydro-3aH-cyclopenta[b]furan-3,3a-diol]
1 | Cc1cn([C@@H]2O[C@@H]3[C@H](Cc4ccc5cc(Br)c(N)nc5c4)CC[C@]3(O)[C@H]2O)c2ncnc(N)c12 [Example 70, (2R,3R,3aS,6S,6aR)-6-((2-amino-3-bromoquinolin-7-yl)methyl)-2-(4-amino-5-methyl-7H-pyrrolo[2,3-d]pyrimidin-7-yl)hexahydro-3aH-cyclopenta[b]furan-3,3a-diol 2,2,2-trifluoroacetate]
1 | Nc1nc2cc(O[C@H]3CC[C@@]4(O)[C@@H]3O[C@@H](n3cc(F)c5c(N)ncnc53)[C@@H]4O)ccc2cc1Cl [Example 74, (2R,3R,3aS,6S,6aR)-6-((2-amino-3-chloroquinolin-7-yl)oxy)-2-(4-amino-5-fluoro-7H-pyrrolo[2,3-d]pyrimidin-7-yl)hexahydro-3aH-cyclopenta[b]furan-3,3a-diol]
